From the supplement of paper PMC13380429

Experiments:
[1] = system: A549-ACE2; assay: drug-induced phospholipidosis relative to tamoxifen; higher = more phospholipidosis
[2] = system: Vero E6; assay: cell viability relative to DMSO; higher = less toxic; conditions: 72 h
[3] = system: Caco-2; assay: as above; conditions: 72 h
[4] = system: Calu-3; assay: as above; conditions: 72 h
[5] = system: U2OS; assay: as above; conditions: 72 h
[6] = system: HepG2; assay: as above; conditions: 72 h
[7] = system: A549-ACE2 infected with SARS-CoV-2; assay: SARS-CoV-2 infection rate relative to DMSO; higher = more infection; conditions: 24 h
[8] = system: Vero E6; assay: relative viability EC50 (midpoint between 100% and the lowest measured viability); higher = less toxic; conditions: 72 h
[9] = system: Caco-2; assay: as above; conditions: 72 h
[10] = system: Calu-3; assay: as above; conditions: 72 h
[11] = system: U2OS; assay: as above; conditions: 72 h
[12] = system: HepG2; assay: as above; conditions: 72 h
[13] = system: Vero E6; assay: drug sensitivity score (DSS) for viability; higher = more toxic; extreme values may be limits of the assay; conditions: 72 h
[14] = system: Caco-2; assay: as above; conditions: 72 h
[15] = system: Calu-3; assay: as above; conditions: 72 h
[16] = system: U2OS; assay: as above; conditions: 72 h
[17] = system: HepG2; assay: as above; conditions: 72 h
[18] = system: A549-ACE2 infected with SARS-CoV-2; assay: morphology score (similarity to uninfected cells); higher = more like uninfected cells; conditions: 24 h
[19] = system: A549-ACE2; assay: phospholipidosis EC50; higher = less potent phospholipidosis inducer
[20] = system: A549-ACE2 infected with SARS-CoV-2; assay: cell count relative to DMSO; higher = less toxic; conditions: 24 h

Nc1nc(NC[C@H]2CC[C@H](CNS(=O)(=O)c3cccc4ccccc34)CC2)nc2ccccc12
drug-induced phospholipidosis [%], [1]
Conditions	0.3 µM	0.833333 µM	3.33333 µM	6.66667 µM	10 µM	30 µM
24 h	4.45	16.1	78.1	111	51.3	58.3
48 h	5.61	11.2	82	124	–	–
72 h	6.01	9.91	62.8	129	–	–

Conditions	SARS-CoV-2 infection rate [%]	cell count [%]	cell viability [%]	morphology score	phospholipidosis EC50 [µM]
[2], 1 nM	–	–	97	–	–
[2], 10 nM	–	–	95.8	–	–
[2], 100 nM	–	–	99.9	–	–
[2], 1000 nM	–	–	91.6	–	–
[2], 10000 nM	–	–	4	–	–
[3], 1 nM	–	–	102	–	–
[3], 10 nM	–	–	97.4	–	–
[3], 100 nM	–	–	93.8	–	–
[3], 1000 nM	–	–	95	–	–
[3], 10000 nM	–	–	12.7	–	–
[4], 1 nM	–	–	89.3	–	–
[4], 10 nM	–	–	95.8	–	–
[4], 100 nM	–	–	98.8	–	–
[4], 1000 nM	–	–	98.1	–	–
[4], 10000 nM	–	–	0.9	–	–
[5], 1 nM	–	–	101	–	–
[5], 10 nM	–	–	101	–	–
[5], 100 nM	–	–	98.5	–	–
[5], 1000 nM	–	–	96.8	–	–
[5], 10000 nM	–	–	3.6	–	–
[6], 1 nM	–	–	98.2	–	–
[6], 10 nM	–	–	99.6	–	–
[6], 100 nM	–	–	101	–	–
[6], 1000 nM	–	–	86.3	–	–
[6], 10000 nM	–	–	0.8	–	–
[7], 0.1 µM	101	–	–	–	–
[7], 0.3 µM	95	–	–	–	–
[7], 1 µM	90	–	–	–	–
[7], 3 µM	12	–	–	–	–
[18], 0.1 µM	–	–	–	0.06	–
[18], 0.3 µM	–	–	–	-0.01	–
[18], 1 µM	–	–	–	0.19	–
[18], 3 µM	–	–	–	0.63	–
[19], 24 h	–	–	–	–	1.03
[19], 48 h	–	–	–	–	3.12
[19], 72 h	–	–	–	–	6.11
[20], 0.1 µM	–	105	–	–	–
[20], 0.3 µM	–	101	–	–	–
[20], 1 µM	–	101	–	–	–
[20], 3 µM	–	123	–	–	–

Conditions	drug sensitivity score	relative viability EC50 [µM]
[8]	–	2.44
[9]	–	2.71
[10]	–	3.03
[11]	–	2.92
[12]	–	2.06
[13]	6.7	–
[14]	5.6	–
[15]	5.8	–
[16]	5.8	–
[17]	7.8	–

CN1C2CCC1CC(OC(c1ccccc1)c1ccc(Cl)cc1)C2 (configuration not stated) [3-CPMT]
drug-induced phospholipidosis [%], [1]
Conditions	0.3 µM	0.833333 µM	3.33333 µM	6.66667 µM	10 µM	30 µM
24 h	4.71	3.97	55.2	83.2	94.4	114
48 h	7.06	3.72	51.9	88.1	103	126
72 h	7.88	7.28	40	85.2	102	–

Conditions	SARS-CoV-2 infection rate [%]	cell count [%]	cell viability [%]	morphology score	phospholipidosis EC50 [µM]
[2], 1 nM	–	–	93.5	–	–
[2], 10 nM	–	–	97.3	–	–
[2], 100 nM	–	–	94.5	–	–
[2], 1000 nM	–	–	96.6	–	–
[2], 10000 nM	–	–	70.6	–	–
[3], 1 nM	–	–	94.2	–	–
[3], 10 nM	–	–	89.7	–	–
[3], 100 nM	–	–	91.5	–	–
[3], 1000 nM	–	–	94.9	–	–
[3], 10000 nM	–	–	76.4	–	–
[4], 1 nM	–	–	107	–	–
[4], 10 nM	–	–	109	–	–
[4], 100 nM	–	–	106	–	–
[4], 1000 nM	–	–	91.3	–	–
[4], 10000 nM	–	–	55.1	–	–
[5], 1 nM	–	–	104	–	–
[5], 10 nM	–	–	96.9	–	–
[5], 100 nM	–	–	100	–	–
[5], 1000 nM	–	–	97.1	–	–
[5], 10000 nM	–	–	72.6	–	–
[6], 1 nM	–	–	99.3	–	–
[6], 10 nM	–	–	110	–	–
[6], 100 nM	–	–	97.6	–	–
[6], 1000 nM	–	–	98.6	–	–
[6], 10000 nM	–	–	59.5	–	–
[7], 0.1 µM	108	–	–	–	–
[7], 0.3 µM	96	–	–	–	–
[7], 1 µM	74	–	–	–	–
[7], 3 µM	32	–	–	–	–
[18], 0.1 µM	–	–	–	-0.03	–
[18], 0.3 µM	–	–	–	-0.04	–
[18], 1 µM	–	–	–	0.58	–
[18], 3 µM	–	–	–	0.88	–
[19], 24 h	–	–	–	–	3.84
[19], 48 h	–	–	–	–	4.5
[19], 72 h	–	–	–	–	4.56
[20], 0.1 µM	–	105	–	–	–
[20], 0.3 µM	–	99	–	–	–
[20], 1 µM	–	116	–	–	–
[20], 3 µM	–	123	–	–	–

Conditions	drug sensitivity score	relative viability EC50 [µM]
[9]	–	> 10
[13]	1.8	–
[14]	1.3	–
[15]	3.7	–
[16]	1.6	–
[17]	2.2	–
